# Test results published in US6949574B2 (Bristol-Myers Squibb Company, priority 2002, dated 2005).
# Where two headings read alike, the source gives them in different places.
# Target: T1, human FAAH (Homo sapiens, UniProt O00519)
# T1 construct: expressed in transfected cells; host or cells: H4 cells (H4-FAAH, Geneticin-selected); crude membrane homogenates
# T1 sequence (O00519 1-579): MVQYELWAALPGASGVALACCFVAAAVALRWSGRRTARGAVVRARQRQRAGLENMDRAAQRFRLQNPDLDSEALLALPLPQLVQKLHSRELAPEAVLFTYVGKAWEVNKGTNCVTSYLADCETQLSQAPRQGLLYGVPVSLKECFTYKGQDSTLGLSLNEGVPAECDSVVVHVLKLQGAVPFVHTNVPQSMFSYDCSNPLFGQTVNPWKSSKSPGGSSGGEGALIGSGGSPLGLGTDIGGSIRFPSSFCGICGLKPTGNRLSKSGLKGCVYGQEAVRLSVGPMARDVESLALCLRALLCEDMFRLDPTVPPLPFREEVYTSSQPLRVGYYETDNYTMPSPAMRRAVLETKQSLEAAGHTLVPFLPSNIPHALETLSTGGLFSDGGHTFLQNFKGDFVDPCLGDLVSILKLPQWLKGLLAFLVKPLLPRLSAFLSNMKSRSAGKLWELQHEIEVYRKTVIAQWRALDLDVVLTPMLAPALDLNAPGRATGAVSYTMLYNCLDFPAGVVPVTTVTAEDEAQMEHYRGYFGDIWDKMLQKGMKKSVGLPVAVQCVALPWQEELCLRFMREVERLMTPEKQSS
# Assay: FAAH activity in membrane homogenates of H4-FAAH cells, [3H]-anandamide hydrolysis
# Type: biochemical
# Description: Homogenates of crude membranes were prepared from H4 cells that express transfected human FAAH (H4-FAAH cells). Briefly, cells were grown in DMEM supplemented with 10% FBS and Geneticin at a final concentration of 500 μg/ml (Gibco BRL, Rockville, Md.). Confluent cultures of H4-FAAH cells were rinsed twice with phosphate-buffered saline [138 mM NaCl, 4.1 mM KCl, 5.1 mM Na2PO4, 1.5 mM KH2PO4 (pH 7.5), 37° C.] and incubated for 5 to 10 minutes at 4° C. in lysis buffer [1 mM sodium bicarbonate]. Cells were transferred from plates to polypropylene tubes (16×100 mm), homogenized and centrifuged at 32,000×g for 30 minutes. Pellets were resuspended by homogenization in lysis buffer and centrifuged at 32,000×g for 30 minutes. Pellets were resuspended in lysis buffer (15-20 μg protein/ml) then stored at −80° C. until needed. On the day of an experiment, membranes were diluted to 2.67 μg protein/ml in 125 mM Tris-Cl, pH 9.0.
# Activity of FAAH was measured using a modification of the method described by Omeir et al., 1995 (Life Sci 56:1999, 1995). Membrane homogenates (240 ng protein) were incubated at room temperature for one hour with 1.67 nM anandamide [ethanolamine 1-^3H] (available from American Radiolabeled Chemical Inc., St Louis, Mo.) and 10 μM anandamide (available from Sigma/RBI, St. Louis, Mo.) in the absence and presence of inhibitors. The reaction was stopped by the addition of 1 volume of a solution of 1:1 methanol and dichloroethane. The mixture was shaken and then centrifuged at 1000×g for 15 minutes to separate the aqueous and organic phases. An aliquot of the aqueous phase, containing [^3H]-ethanolamine was withdrawn and counted by scintillation spectroscopy. Data were expressed as the percentage of [^3H]-ethanolamine formed versus vehicle, after subtraction of the background radioactivity determined in the presence of 10 μM arachidonyl trifluoromethyl ketone (ATFMK), an inhibitor of FAAH. IC50 values were determined using a four-parameter logistic equation for dose-response curves.
# [1] = H4-FAAH cell membranes, 10 μM anandamide, room temperature, one hour, read-out: IC50
Compound,IC50 [1],IC50
"CCCCCCCOc1ccc(NC(=O)O/N=C/c2cccnc2)cc1 [Example 1, 3-Pyridinecarboxaldehyde, O-[[[4-(Heptyloxy)phenyl]amino]carbonyl]oxime]",< 10 nM,
"CCCCOc1ccc(CNC(=O)Oc2cccnc2)cc1 [Example 2, (4-Butoxyphenyl)methylcarbamic acid, 3-pyridinyl ester]",< 10 nM,
"CCCCCCCCCCCOc1ccc(NC(=O)O/N=C/c2cccnc2)cc1 [Example 3, 3-Pyridinecarboxaldehyde, O-[[[4-(undecyloxy)phenyl]amino]carbonyl]oxime]",< 10 nM,
"CCCCCCCCCOc1ccc(NC(=O)O/N=C/c2cccnc2)cc1 [Example 4, 3-Pyridinecarboxaldehyde, O-[[[4-(nonyloxy)phenyl]amino]carbonyl]oxime]",,< 10 nM
"CCOc1ccc(NC(=O)ON=C(C)C)cc1 [Example 6, 2-Propanone, O-[[(4-ethoxyphenyl)amino]carbonyl]oxime]",101 to 500 nM,
"CCCOc1ccc(NC(=O)ON=C(C)C)cc1 [Example 7, 2-Propanone, O-[[(4-propoxyphenyl)amino]carbonyl]oxime]",101 to 500 nM,
"CCCCCOc1ccc(NC(=O)ON=C(C)C)cc1 [Example 8, 2-Propanone, O-[[(4-pentyloxyphenyl)amino]carbonyl]oxime]",10 to 100 nM,
"CCOc1ccc(NC(=O)O/N=C/c2ccccc2)cc1 [Example 9, Benzaldehyde, O-[[(4-ethoxyphenyl)amino]carbonyl]oxime]",10 to 100 nM,
"CCCOc1ccc(NC(=O)O/N=C/c2ccccc2)cc1 [Example 10, Benzaldehyde, O-[[(4-propoxyphenyl)amino]carbonyl]oxime]",< 10 nM,
"CCCCCOc1ccc(NC(=O)O/N=C/c2ccccc2)cc1 [Example 11, Benzaldehyde, O-[[(4-pentyloxyphenyl)amino]carbonyl]oxime]",,< 10 nM
"CCOc1ccc(NC(=O)O/N=C/c2ccc(F)cc2)cc1 [Example 12, 4-Fluorobenzaldehyde, O-[[(4-ethoxyphenyl)amino]carbonyl]oxime]",10 to 100 nM,
"CCCOc1ccc(NC(=O)O/N=C/c2ccc(F)cc2)cc1 [Example 13, 4-Fluorobenzaldehyde, O-[[(4-propoxyphenyl)amino]carbonyl]oxime]",10 to 100 nM,
"CCCCCOc1ccc(NC(=O)O/N=C/c2ccc(F)cc2)cc1 [Example 14, 4-Fluorobenzaldehyde, O-[[(4-pentyloxyphenyl)amino]carbonyl]oxime]",,< 10 nM
"CCOc1ccc(NC(=O)O/N=C/c2cccnc2)cc1 [Example 15, 3-Pyridinecarboxaldehyde, O-[[(4-ethoxyphenyl)amino]carbonyl]oxime]",101 to 500 nM,
"CCCOc1ccc(NC(=O)O/N=C/c2cccnc2)cc1 [Example 16, 3-Pyridinecarboxaldehyde, O-[[(4-propoxyphenyl)amino]carbonyl]oxime]",10 to 100 nM,
"CCCCCOc1ccc(NC(=O)O/N=C/c2cccnc2)cc1 [Example 17, 3-Pyridinecarboxaldehyde, O-[[(4-pentyloxyphenyl)amino]carbonyl]oxime]",< 10 nM,
"CCCCOc1ccc(NC(=O)ON=C(C)C)cc1OC [Example 18, 2-Propanone, O-[[(4-butoxy-3-methoxyphenyl)amino]carbonyl]oxime]",> 500 nM,
"CCCCOc1ccc(NC(=O)O/N=C/c2ccccc2)cc1OC [Example 19, Benzaldehyde, O-[[(4-butoxy-3-methoxyphenyl)amino]carbonyl]oxime]",101 to 500 nM,
"CCCCOc1ccc(NC(=O)O/N=C/c2ccc(F)cc2)cc1OC [Example 20, 4-Fluorobenzaldehyde, O-[[(4-butoxy-3-methoxyphenyl)amino]carbonyl]oxime]",101 to 500 nM,
"CCCCOc1ccc(NC(=O)O/N=C/c2cccnc2)cc1OC [Example 21, 3-Pyridinecarboxaldehyde, O-[[(4-butoxy-3-methoxyphenyl)amino]carbonyl]oxime]",> 500 nM,

Compound,IC50 [1],IC50
"CCCCCCOc1ccc(NC(=O)ON=C(C)C)cc1 [Example 22, 2-Propanone, O-[[(4-hexyloxyphenyl)amino]carbonyl]oxime]",10 to 100 nM,
"CCCCCCOc1ccc(NC(=O)O/N=C/c2ccccc2)cc1 [Example 23, Benzaldehyde, O-[[(4-hexyloxyphenyl)amino]carbonyl]oxime]",< 10 nM,
"CCCCCCOc1ccc(NC(=O)O/N=C/c2ccc(F)cc2)cc1 [Example 24, 4-Fluorobenzaldehyde, O-[[(4-hexyloxyphenyl)amino]carbonyl]oxime]",< 10 nM,
"CCCCCCOc1ccc(NC(=O)O/N=C/c2cccnc2)cc1 [Example 25, 3-Pyridinecarboxaldehyde, O-[[(4-hexyloxyphenyl)amino]carbonyl]oxime]",< 10 nM,
"CCCCCCCOc1ccc(NC(=O)ON=C(C)C)cc1 [Example 26, 2-Propanone, O-[[(4-heptyloxyphenyl)amino]carbonyl]oxime]",< 10 nM,
"CCCCCCCOc1ccc(NC(=O)O/N=C/c2ccccc2)cc1 [Example 27, Benzaldehyde, O-[[(4-heptyloxyphenyl)amino]carbonyl]oxime]",< 10 nM,
"CCCCCCCOc1ccc(NC(=O)O/N=C/c2ccc(F)cc2)cc1 [Example 28, 4-Fluorobenzaldehyde, O-[[(4-heptyloxyphenyl)amino]carbonyl]oxime]",< 10 nM,
"CCCCCCCCOc1ccc(NC(=O)ON=C(C)C)cc1 [Example 29, 2-Propanone, O-[[(4-octyloxyphenyl)amino]carbonyl]oxime]",< 10 nM,
"CCCCCCCCOc1ccc(NC(=O)O/N=C/c2cccnc2)cc1 [Example 30, 3-Pyridinecarboxaldehyde, O-[[(4-octyloxyphenyl)amino]carbonyl]oxime]",< 10 nM,
"CCCCCCCCCOc1ccc(NC(=O)ON=C(C)C)cc1 [Example 31, 2-Propanone, O-[[(4-nonyloxyphenyl)amino]carbonyl]oxime]",< 10 nM,
"CCCCCCCCCCOc1ccc(NC(=O)ON=C(C)C)cc1 [Example 32, 2-Propanone, O-[[(4-decyloxyphenyl)amino]carbonyl]oxime]",< 10 nM,
"CCCCCCCCCCOc1ccc(NC(=O)O/N=C/c2ccccc2)cc1 [Example 33, Benzaldehyde, O-[[(4-decyloxyphenyl)amino]carbonyl]oxime]",< 10 nM,
"CCCCCCCCCCOc1ccc(NC(=O)O/N=C/c2ccc(F)cc2)cc1 [Example 34, 4-Fluorobenzaldehyde, O-[[(4-decyloxyphenyl)amino]carbonyl]oxime]",< 10 nM,
"CCCCCCCCCCOc1ccc(NC(=O)O/N=C/c2cccnc2)cc1 [Example 35, 3-Pyridinecarboxaldehyde, O-[[(4-decyloxyphenyl)amino]carbonyl]oxime]",< 10 nM,
"CCCCCCCCCCCOc1ccc(NC(=O)ON=C(C)C)cc1 [Example 36, 2-Propanone, O-[[(4-undecyloxyphenyl)amino]carbonyl]oxime]",< 10 nM,
"CCCCCCCCCCCOc1ccc(NC(=O)O/N=C/c2ccccc2)cc1 [Example 37, Benzaldehyde, O-[[(4-undecyloxyphenyl)amino]carbonyl]oxime]",< 10 nM,
"CCCCCCCCCCCOc1ccc(NC(=O)O/N=C/c2ccc(F)cc2)cc1 [Example 38, 4-Fluorobenzaldehyde, O-[[(4-undecyloxyphenyl)amino]carbonyl]oxime]",< 10 nM,
"CCCCOc1ccc(NC(=O)O/N=C/c2ccccc2)cc1 [Example 39, Benzaldehyde, O-[[(4-butoxyphenyl)amino]carbonyl]oxime]",< 10 nM,
"CCCCCCCCCCCCOc1ccc(NC(=O)ON=C(C)C)cc1 [Example 40, 2-Propanone, O-[[(4-dodecyloxyphenyl)amino]carbonyl]oxime]",< 10 nM,
"CCCCCCCCCCCCOc1ccc(NC(=O)O/N=C/c2ccccc2)cc1 [Example 41, Benzaldehyde, O-[[(4-dodecyloxyphenyl)amino]carbonyl]oxime]",< 10 nM,
